# Results taken from US20050143927A1, “Method for estimating or predicting the anti-tumor activity of a compound and for estimating or predicting the tumor growth in mammals” (Pharmacia Italia S.p.A., priority 2002, published 2005).
# Assay: Two-compartment PK model fitted to plasma concentration of Drug-A (Experiment-A)
# Details: for Vd: male, athymic nude, mouse, iv; for Vd / A (PK macro-constant) / Alpha (PK macro-constant) / B (PK macro-constant) / Beta (PK macro-constant): plasma
# [1] = dose 20 mg/kg iv-bolus q4dx3, mean of four mice
# [2] = dose 30 mg/kg iv-bolus q4dx3, mean of four mice
# [3] = dose 40 mg/kg iv-bolus q4dx3, mean of four mice
# [4] = mouse 0, 20 mg/kg iv-bolus q4dx3
# [5] = mouse 26, 40 mg/kg iv-bolus q4dx3
# [6] = mouse 28, 30 mg/kg iv-bolus q4dx3
# [7] = mouse 31, 20 mg/kg iv-bolus q4dx3
# [8] = mouse 55, 20 mg/kg iv-bolus q4dx3
# [9] = mouse 59, 30 mg/kg iv-bolus q4dx3
# [10] = mouse 64, 30 mg/kg iv-bolus q4dx3
# [11] = mouse 69, 20 mg/kg iv-bolus q4dx3
# [12] = mouse 78, 40 mg/kg iv-bolus q4dx3
# [13] = mouse 80, 40 mg/kg iv-bolus q4dx3
# [14] = mouse 81, 40 mg/kg iv-bolus q4dx3
# [15] = mouse 88, 30 mg/kg iv-bolus q4dx3
structure (smiles),measurement,setting,value
"CC(=O)O[C@H]1C(=O)[C@@]2(C)[C@H]([C@H](OC(=O)c3ccccc3)[C@]3(O)C[C@H](OC(=O)[C@H](O)[C@@H](NC(=O)c4ccccc4)c4ccccc4)C(C)=C1C3(C)C)[C@]1(OC(C)=O)CO[C@@H]1C[C@@H]2O [Drug-A, paclitaxel]","A (PK macro-constant), mean",[1],34294.5621
same,"B (PK macro-constant), mean",[1],3467.5180
same,"K10, mean",[1],41.0979 day⁻¹
same,"K12, mean",[1],16.4430 day⁻¹
same,"K21, mean",[1],12.4026 day⁻¹
same,"α (PK macro-constant), mean",[1],62.0545
same,"β (PK macro-constant), mean",[1],7.8890
same,"A (PK macro-constant), mean",[2],56632.6519
same,"B (PK macro-constant), mean",[2],759.8587
same,"K10, mean",[2],20.8063 day⁻¹
same,"K12, mean",[2],2.2085 day⁻¹
same,"K21, mean",[2],3.4809 day⁻¹
same,"α (PK macro-constant), mean",[2],23.2801
same,"β (PK macro-constant), mean",[2],3.2157
same,"A (PK macro-constant), mean",[3],62064.8954
same,"B (PK macro-constant), mean",[3],7999.4363
same,"K10, mean",[3],20.0530 day⁻¹
same,"K12, mean",[3],9.5544 day⁻¹
same,"K21, mean",[3],6.2425 day⁻¹
same,"α (PK macro-constant), mean",[3],32.9706
same,"β (PK macro-constant), mean",[3],2.8793
same,Vd,"20 mg/kg, Vd (apparent volume of distribution of the central compartment), mouse 0, 20 mg/kg iv-bolus q4dx3",9.51 L/kg
same,Vd,"20 mg/kg, Vd (apparent volume of distribution of the central compartment), mouse 31, 20 mg/kg iv-bolus q4dx3",1.34 L/kg
same,Vd,"20 mg/kg, Vd (apparent volume of distribution of the central compartment), mouse 55, 20 mg/kg iv-bolus q4dx3",0.719 L/kg
same,Vd,"20 mg/kg, Vd (apparent volume of distribution of the central compartment), mouse 69, 20 mg/kg iv-bolus q4dx3",0.188 L/kg
same,Vd,"20 mg/kg, Vd, mean, dose 20 mg/kg iv-bolus q4dx3, mean of four mice",2.94 L/kg
same,Vd,"30 mg/kg, Vd (apparent volume of distribution of the central compartment), mouse 28, 30 mg/kg iv-bolus q4dx3",0.528 L/kg
same,Vd,"30 mg/kg, Vd (apparent volume of distribution of the central compartment), mouse 59, 30 mg/kg iv-bolus q4dx3",0.373 L/kg
same,Vd,"30 mg/kg, Vd (apparent volume of distribution of the central compartment), mouse 64, 30 mg/kg iv-bolus q4dx3",0.745 L/kg
same,Vd,"30 mg/kg, Vd (apparent volume of distribution of the central compartment), mouse 88, 30 mg/kg iv-bolus q4dx3",0.578 L/kg
same,Vd,"30 mg/kg, Vd, mean, dose 30 mg/kg iv-bolus q4dx3, mean of four mice",0.556 L/kg
same,Vd,"40 mg/kg, Vd (apparent volume of distribution of the central compartment), mouse 26, 40 mg/kg iv-bolus q4dx3",5.07 L/kg
same,Vd,"40 mg/kg, Vd (apparent volume of distribution of the central compartment), mouse 78, 40 mg/kg iv-bolus q4dx3",1.87 L/kg
same,Vd,"40 mg/kg, Vd (apparent volume of distribution of the central compartment), mouse 80, 40 mg/kg iv-bolus q4dx3",0.234 L/kg
same,Vd,"40 mg/kg, Vd (apparent volume of distribution of the central compartment), mouse 81, 40 mg/kg iv-bolus q4dx3",0.502 L/kg
same,Vd,"40 mg/kg, Vd, mean, dose 40 mg/kg iv-bolus q4dx3, mean of four mice",1.92 L/kg
same,K10 (constant rate of the elimination process),[4],25.15 day⁻¹
same,K12 (interchange constant rate),[4],15.64 day⁻¹
same,K21 (interchange constant rate),[4],5.819 day⁻¹
same,A (PK macro-constant),[4],1975
same,Alpha (PK macro-constant),[4],43.22
same,B (PK macro-constant),[4],128.5
same,Beta (PK macro-constant),[4],3.386
same,K10 (constant rate of the elimination process),[5],14.22 day⁻¹
same,K12 (interchange constant rate),[5],1.663 day⁻¹
same,K21 (interchange constant rate),[5],3.76 day⁻¹
same,A (PK macro-constant),[5],7586
same,Alpha (PK macro-constant),[5],16.38
same,B (PK macro-constant),[5],297.8
same,Beta (PK macro-constant),[5],3.265
same,K10 (constant rate of the elimination process),[6],20.98 day⁻¹
same,K12 (interchange constant rate),[6],1.774 day⁻¹
same,K21 (interchange constant rate),[6],6.257 day⁻¹
same,A (PK macro-constant),[6],54798.379413
same,Alpha (PK macro-constant),[6],23.4
same,B (PK macro-constant),[6],2069
same,Beta (PK macro-constant),[6],5.61
same,K10 (constant rate of the elimination process),[7],22.85 day⁻¹
same,K12 (interchange constant rate),[7],3.375 day⁻¹
same,K21 (interchange constant rate),[7],5.126 day⁻¹
same,A (PK macro-constant),[7],14365.650820
same,Alpha (PK macro-constant),[7],27.02
same,B (PK macro-constant),[7],518.5
same,Beta (PK macro-constant),[7],4.336
same,K10 (constant rate of the elimination process),[8],35.24 day⁻¹
same,K12 (interchange constant rate),[8],3.303 day⁻¹
same,K21 (interchange constant rate),[8],3.947 day⁻¹
same,A (PK macro-constant),[8],27526.035314
same,Alpha (PK macro-constant),[8],38.91
same,B (PK macro-constant),[8],293.5
same,Beta (PK macro-constant),[8],3.575
same,K10 (constant rate of the elimination process),[9],18.65 day⁻¹
same,K12 (interchange constant rate),[9],4.915 day⁻¹
same,K21 (interchange constant rate),[9],0.005329 day⁻¹
same,A (PK macro-constant),[9],80469.811028
same,Alpha (PK macro-constant),[9],23.57
same,B (PK macro-constant),[9],3.797
same,Beta (PK macro-constant),[9],0.004217
same,K10 (constant rate of the elimination process),[10],17.25 day⁻¹
same,K12 (interchange constant rate),[10],0.5748 day⁻¹
same,K21 (interchange constant rate),[10],3.444 day⁻¹
same,A (PK macro-constant),[10],39912.523664
same,Alpha (PK macro-constant),[10],17.96
same,B (PK macro-constant),[10],374.8
same,Beta (PK macro-constant),[10],3.308
same,K10 (constant rate of the elimination process),[11],81.15 day⁻¹
same,K12 (interchange constant rate),[11],43.46 day⁻¹
same,K21 (interchange constant rate),[11],34.72 day⁻¹
same,A (PK macro-constant),[11],93311.275568
same,Alpha (PK macro-constant),[11],139.1
same,B (PK macro-constant),[11],12929.572382
same,Beta (PK macro-constant),[11],20.26
same,K10 (constant rate of the elimination process),[12],18.81 day⁻¹
same,K12 (interchange constant rate),[12],1.318 day⁻¹
same,K21 (interchange constant rate),[12],0.03721 day⁻¹
same,A (PK macro-constant),[12],21408.348297
same,Alpha (PK macro-constant),[12],20.13
same,B (PK macro-constant),[12],2.6
same,Beta (PK macro-constant),[12],0.03477
same,K10 (constant rate of the elimination process),[13],30.07 day⁻¹
same,K12 (interchange constant rate),[13],35.07 day⁻¹
same,K21 (interchange constant rate),[13],21.07 day⁻¹
same,A (PK macro-constant),[13],139526.742848
same,Alpha (PK macro-constant),[13],78.1
same,B (PK macro-constant),[13],31692.453321
same,Beta (PK macro-constant),[13],8.112
same,K10 (constant rate of the elimination process),[14],17.11 day⁻¹
same,K12 (interchange constant rate),[14],0.1688 day⁻¹
same,K21 (interchange constant rate),[14],0.1062 day⁻¹
same,A (PK macro-constant),[14],79738.401451
same,Alpha (PK macro-constant),[14],17.28
same,B (PK macro-constant),[14],4.845
same,Beta (PK macro-constant),[14],0.1051
same,K10 (constant rate of the elimination process),[15],26.34 day⁻¹
same,K12 (interchange constant rate),[15],1.57 day⁻¹
same,K21 (interchange constant rate),[15],4.217 day⁻¹
same,A (PK macro-constant),[15],51349.893679
same,Alpha (PK macro-constant),[15],28.19
same,B (PK macro-constant),[15],591.6
same,Beta (PK macro-constant),[15],3.941
